Measured values: US20260317312A1, “ISOXAZOLIDINES AS RIPK1 INHIBITORS AND USE THEREOF” (GENZYME CORPORATION, priority 2023, published 2026)
pIC50: −log10 of the molar value.

Experiments:
[1] = test system: U937 cells; assay: Cellular assay in U937 cells to measure activity of RIPK1-inhibitors on cell death (necroptosis); type: cell-based; conditions: overnight (18 to 24 hrs), 37° C., MTS readout
Excerpt: Upon TNF-Receptor I ligation, Ser/Thr kinase RIPK1 is recruited to a transient receptor complex I. Upon modification of RIPK1 which promotes activation of RIPK1, complex lib can form, that involves recruitment of RIPK3 and MLKL (mixed lineage-kinase domain-like protein) which then translocates from the cytosol to the plasma membrane to execute cell death (Cai, Z. et al, Nat. Cell Biol. (2014)16:55-65).
Cell death was quantified in 96 well plates by determination of the amount of live cell using a CellTiter 96 Aqueous reagent (Promega), a calorimetric method to measure the number of live cells by reducing tetrazolium compound [3-(4,5-dimethylthiazol-2-yl)-5-(3-carboxymethoxyphenyl)-2-(4-sulfophenyl)-2H-tetrazolium, inner salt; MTS] into formazan. Absorbance of formazan was read at 490 nm. The inhibitory activity of the test compound was quantified in a concentration response curve (CRC) experiment.
Compounds were obtained as 10 mM stock solutions and were diluted 1 to 10 volumes with DMSO to yield a 1 mM solution. From this solution 2 μl were diluted with 998 μl growth medium. 100 μl of 2 μM compound solution was further diluted sequentially with a dilution factor of 2.5 by adding 150 μl growth medium. A total of 10 concentrations were tested ranging from 10 μM to 0.26 nM or from 1 μM to 0.07 nM.
U937 cells were cultured in RPM11640 Glutamax and 10% heat inactivated FBS. 50 μl cell suspension containing 1×10^6 cells/ml supplemented with 50 μM zVAD.fmk (Benzyloxycarbonyl-Val-Ala-Asp (Ome) fluoromethylketone) and 100 ng/ml recombinant human TNFα were dispensed in each well of a 96-well plate. 50 μl of compound dilutions (described in Cellular assay in U937 cells) were added and the cell suspension incubated overnight (18 to 24 hrs) at 37° C., 5% CO2 in a humidified atmosphere (95% rH). High (no compound) and low control (no TNFα, zVAD.fmk) were tested with 7 replicates; all compound concentrations were tested in duplicates on each experimental plate.
CellTiter 96 Aqueous reagent was mixed (100 μl PMS (phenazine methosulfate) solution/2 ml MTS (3-(4,5-[…])-5-(3-carboxymethoxyphenyl)-2-(4-sulfophenyl)-2H-tetrazolium, inner salt) solution) and 20 μl were added per well. After 4 hrs incubation at 37° C. (5% CO2 95% rH) optical density was measured at 490 nm on a microplate reader (Tecan Infinite M1000).
The % inhibition is expressed as percentage of the maximal inhibition value obtained in the absence of TNFα/zVAD.fmc.

[2] = molecular target: T1, hRIPK1 (aa 1-375) fusion protein (Homo sapiens, UniProt Q13546); assay: Receptor-Interacting Protein Kinase 1 inhibition, ADP Glo assay (conversion of ATP to ADP due to autophosphorylation); type: biochemical; conditions: ATP 50 μM, 30 min preincubation, 240 min incubation, room temperature, DMSO 1%
T1 construct: hRIPK1 (aa 1-375) fusion protein
T1 sequence (Q13546 1-375): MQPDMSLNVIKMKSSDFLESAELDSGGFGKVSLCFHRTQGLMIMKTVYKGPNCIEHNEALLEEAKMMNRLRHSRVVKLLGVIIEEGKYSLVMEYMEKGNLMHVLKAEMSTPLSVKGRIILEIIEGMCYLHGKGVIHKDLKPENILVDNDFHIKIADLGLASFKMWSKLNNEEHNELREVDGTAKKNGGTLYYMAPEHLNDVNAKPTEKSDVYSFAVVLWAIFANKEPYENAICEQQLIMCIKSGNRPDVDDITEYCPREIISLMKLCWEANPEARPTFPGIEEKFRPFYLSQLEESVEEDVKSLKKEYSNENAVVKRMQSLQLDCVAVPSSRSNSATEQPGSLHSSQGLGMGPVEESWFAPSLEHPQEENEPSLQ
Description: The catalytic activity of RIPK1 was measured by monitoring the conversion of Adenosine triphosphate (ATP) to Adenosine diphosphate (ADP) due to autophosphorylation using an ADP-Glo kinase kit (Promega, catalog no. V9104).
In detail, 2 μl recombinantly produced hRIPK1 (aa 1-375) fusion protein (end concentration 3.6 μg/ml) and 2 μl compound (end concentration 33300-1.69 nM; DMSO end concentration 1%) were incubated for 30 minutes at room temperature and then 2 μl ATP (ADP Glo kit, end concentration 50 μM) were added. After another 240 minutes incubation at room temperature, 5 μl Promega ADP-Glo reagent I was added to quench the reaction and deplete unconsumed ATP. After an incubation period of 30 minutes, 10 μl Promega ADP-Glo detection reagent II was added resulting in conversion of ADP to ATP, which generates a light-reaction between luciferase and luciferin. Luminescence was quantified after 30 minutes with a Pherastar FS (BMG LABTECH, Ortenberg).
The adjustment was obtained by nonlinear regression using the Levenberg Marquardt algorithm.

[3] = Homo sapiens, U-937, TNFα/zVAD.fmk induced cell death (necroptosis)

| pIC50 [2] | SMILES | pIC50 [1, 3] | pIC50 ([1]; TNFα/zVAD.fmk induced cell death (necroptosis)) |
| --- | --- | --- | --- |
| 7.21 | C[C@]1(C(=O)N2OCC[C@H]2c2cc(F)cc(F)c2)C[C@@H](Nc2c(Cl)ncnc2C(N)=O)C1 [Compound 10, cis-6-chloro-5-((3-((S)-3-(3,5-difluorophenyl)isoxazolidine-2-carbonyl)-3-methylcyclobutyl)amino)pyrimidine-4-carboxamide] | 6.44 | – |
| 7.21 | C[C@]1(C(=O)N2OCC[C@H]2c2cc(F)cc(F)c2)C[C@@H](Nc2ncnc(C(N)=O)c2F)C1 [Compound 11, cis-6-((3-((S)-3-(3,5-difluorophenyl)isoxazolidine-2-carbonyl)-3-methylcyclobutyl)amino)-5-fluoropyrimidine-4-carboxamide] | 6.36 | – |
| 7.46 | NC(=O)c1ccnc(N[C@H]2CC[C@@H](C(=O)N3OCC[C@H]3c3ccc(Cl)cc3)CC2)n1 [Compound 12, cis-2-((4-((S)-3-(4-chlorophenyl)isoxazolidine-2-carbonyl)cyclohexyl)amino)pyrimidine-4-carboxamide] | 6.25 | – |
| 6.94 | NC(=O)c1cc(N[C@H]2CC[C@@H](C(=O)N3OCC[C@H]3c3ccc(Cl)cc3)CC2)ncn1 [Compound 13, cis-6-((4-((S)-3-(4-chlorophenyl)isoxazolidine-2-carbonyl)cyclohexyl)amino)pyrimidine-4-carboxamide] | 6.34 | – |
| 7.48 | N#Cc1ccnc(NC[C@H]2CC[C@H](C(=O)N3OCC[C@H]3c3ccc(Cl)cc3)CC2)n1 [Compound 14, trans-2-(((4-((S)-3-(4-chlorophenyl)isoxazolidine-2-carbonyl)cyclohexyl)methyl)amino)pyrimidine-4-carbonitrile] | 6.30 | – |
| 8.05 | N#Cc1cc(NC[C@H]2CC[C@H](C(=O)N3OCC[C@H]3c3ccc(Cl)cc3)CC2)ncn1 [Compound 15, trans-6-(((4-((S)-3-(4-chlorophenyl)isoxazolidine-2-carbonyl)cyclohexyl)methyl)amino)pyrimidine-4-carbonitrile] | 6.72 | – |
| 7.62 | N#Cc1ccnc(N[C@H]2C[C@@H](C(=O)N3OCC[C@H]3c3cccc(F)c3)C2)n1 [Compound 16, cis-2-((3-((S)-3-(3-fluorophenyl)isoxazolidine-2-carbonyl)cyclobutyl)amino)pyrimidine-4-carbonitrile] | 6.91 | – |
| 7.25 | N#Cc1cc(N[C@H]2C[C@@H](C(=O)N3OCC[C@H]3c3cccc(F)c3)C2)ncn1 [Compound 17, cis-6-((3-((S)-3-(3-fluorophenyl)isoxazolidine-2-carbonyl)cyclobutyl)amino)pyrimidine-4-carbonitrile] | 6.71 | – |
| 7.39 | N#Cc1cc(N[C@H]2C[C@@H](C(=O)N3OCC[C@H]3c3cc(F)cc(F)c3)C2)ncn1 [Compound 18, cis-6-((3-((S)-3-(3,5-difluorophenyl)isoxazolidine-2-carbonyl)cyclobutyl)amino)pyrimidine-4-carbonitrile] | 6.79 | – |
| 7.18 | N#Cc1cc(F)cc([C@@H]2CCON2C(=O)[C@H]2C[C@@H](Nc3nccc(C#N)n3)C2)c1 [Compound 19, cis-2-((3-((S)-3-(3-cyano-5-fluorophenyl)isoxazolidine-2-carbonyl)cyclobutyl)amino)pyrimidine-4-carbonitrile] | 6.12 | – |
| 7.16 | N#Cc1cc(F)cc([C@@H]2CCON2C(=O)[C@H]2C[C@@H](Nc3cc(C#N)ncn3)C2)c1 [Compound 20, cis-6-((3-((S)-3-(3-cyano-5-fluorophenyl)isoxazolidine-2-carbonyl)cyclobutyl)amino)pyrimidine-4-carbonitrile] | 6.09 | – |
| 7.54 | N#Cc1ccnc(N[C@H]2C[C@@H](C(=O)N3OCC[C@H]3c3ccc(F)c(F)c3)C2)n1 [Compound 21, cis-2-((3-((S)-3-(3,4-difluorophenyl)isoxazolidine-2-carbonyl)cyclobutyl)amino)pyrimidine-4-carbonitrile] | 6.67 | – |
| 7.40 | N#Cc1cc(N[C@H]2C[C@@H](C(=O)N3OCC[C@H]3c3ccc(F)c(F)c3)C2)ncn1 [Compound 22, cis-6-((3-((S)-3-(3,4-difluorophenyl)isoxazolidine-2-carbonyl)cyclobutyl)amino)pyrimidine-4-carbonitrile] | 6.50 | – |
| 7.36 | N#Cc1cc(N[C@H]2C[C@@H](C(=O)N3OCC[C@H]3c3ccc(Cl)cc3)C2)ncn1 [Compound 23, cis-6-((3-((S)-3-(4-chlorophenyl)isoxazolidine-2-carbonyl)cyclobutyl)amino)pyrimidine-4-carbonitrile] | 6.63 | – |
| 7.89 | N#Cc1ccnc(N[C@H]2C[C@@H](C(=O)N3OCC[C@H]3c3ccc(Cl)cc3)C2)n1 [Compound 24, cis-2-((3-((S)-3-(4-chlorophenyl)isoxazolidine-2-carbonyl)cyclobutyl)amino)pyrimidine-4-carbonitrile] | – | 6.58 |
| 7.19 | N#Cc1cc(F)cc(N[C@H]2C[C@@H](C(=O)N3OCC[C@H]3c3ccc(Cl)cc3)C2)c1 [Compound 25, cis-3-((3-((S)-3-(4-chlorophenyl)isoxazolidine-2-carbonyl)cyclobutyl)amino)-5-fluorobenzonitrile] | 6.38 | – |
| 7.28 | N#Cc1cc(F)cc(N[C@H]2C[C@@H](C(=O)N3OCC[C@H]3c3cccc(F)c3)C2)c1 [Compound 26, cis-3-fluoro-5-((3-((S)-3-(3-fluorophenyl)isoxazolidine-2-carbonyl)cyclobutyl)amino)benzonitrile] | 6.82 | – |
| 7.31 | N#Cc1cc(F)cc(N[C@H]2C[C@@H](C(=O)N3OCC[C@H]3c3ccc(F)c(F)c3)C2)c1 [Compound 27, cis-3-((3-((S)-3-(3,4-difluorophenyl)isoxazolidine-2-carbonyl)cyclobutyl)amino)-5-fluorobenzonitrile] | 6.77 | – |
| 7.07 | N#Cc1cc(F)cc([C@@H]2CCON2C(=O)[C@H]2CC[C@H](CNc3cc(C(N)=O)ncn3)CC2)c1 [Compound 29, trans-6-(((4-((S)-3-(3-cyano-5-fluorophenyl)isoxazolidine-2-carbonyl)cyclohexyl)methyl)amino)pyrimidine-4-carboxamide] | 6.25 | – |
| 7.23 | N#Cc1cc(F)cc([C@@H]2CCON2C(=O)[C@H]2CC[C@H](CNc3cc(C#N)ncn3)CC2)c1 [Compound 30, trans-6-(((4-((S)-3-(3-cyano-5-fluorophenyl)isoxazolidine-2-carbonyl)cyclohexyl)methyl)amino)pyrimidine-4-carbonitrile] | 6.58 | – |
| 6.96 | Cn1ccc2c(NC[C@H]3CC[C@H](C(=O)N4OCC[C@H]4c4cc(F)cc(C#N)c4)CC3)ncnc21 [Compound 31, trans-3-fluoro-5-((S)-2-(4-(((7-methyl-7H-pyrrolo[2,3-d]pyrimidin-4-yl)amino)methyl)cyclohexane-1-carbonyl)isoxazolidin-3-yl)benzonitrile] | 6.43 | – |
